Data reported in patent publication US9206432B2, “Sulfonylurea-responsive repressor proteins” (priority 2008, dated 2015).

Key:
[1] = pH 7; cited from earlier work
[2] = system: tet operator (tetO); assay: Electrophoretic gel mobility shift assay (EMSA), operator binding and release by inducer; settings: ethametsulfuron repressor protein (L7A11) on TetO (FIG. 7)
[3] = system: lacZ under control of the tetA promoter (PtetA) in E. coli KM3; type: cell-based; settings: L1 hits, SU compounds at 20 μg/ml

Structure (SMILES): COC(=O)c1sccc1S(=O)(=O)NC(=O)Nc1nc(C)nc(OC)n1 [Harmony®, Thifensulfuron-methyl]
- logP [1]: ~0.02

Structure (SMILES): Cc1c2c(c(O)c3c(O)cccc13)C(=O)[C@]1(O)C(=O)C(C(N)=O)=C(O)[C@@H](N(C)C)[C@@H]1C2 [atc, anhydrotetracycline]
- operator release by inducer [2]: No change in operator release

Structure (SMILES): CCOC(=O)c1ccccc1S(=O)(=O)NC(=O)Nc1nc(Cl)cc(OC)n1 [chlorimuron, Chlorimuron-ethyl, reference compound]
- potency as activator compared with Harmony® [3]: more potent activators than the starting ligand Harmony®

Structure (SMILES): COc1nc(C)nc(NC(=O)NS(=O)(=O)c2ccccc2Cl)n1 [chlorsulfuron, 2 chloro N ((4 methoxy 6 methy 1,3,5 triazine 2 yl)aminocarbonyl)benzenesulfonamide, reference compound]
- potency as activator compared with Harmony® [3]: more potent activators than the starting ligand Harmony®

Structure (SMILES): CCOc1nc(NC)nc(NC(=O)NS(=O)(=O)c2ccccc2C(=O)OC)n1 [ethametsulfuron, Ethametsulfuron-methyl, reference compound]
- potency as activator compared with Harmony® [3]: more potent activators than the starting ligand Harmony®
- operator release by inducer [2]: inducer preference for operator release by Es compared to Cs
